Assay results as given in US7579356B2, “Thia-tetraazaacenaphthylene kinase inhibitors” (Janssen Pharmaceutica NV, priority 2005, dated 2009).

Key:
EGFR = biological target: T1, EGFR (Homo sapiens, UniProt P00533); assay: EGFR Kinase Assay; assay type: biochemical; details: for IC50: GST-EGFR, ATP 5 μM; for inhibition at 2 µM: test concentration of 2 μM, compounds without an IC50, read-out: EGFR inhibition in percent
T1 construct: The intracellular portion of EGFR started at nucleotide 2189 (corresponding to amino acid 667) and ended at the termination codon; made in house; host or cells: Sf9 insect cells (baculovirus)
Procedure, shortened: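 Potency came from triplicate 16-point half-log titrations starting at 200 uM, with IC50 fitted from % inhibition against log concentration, or % inhibition at 2 μM otherwise. Reaction: Sf9-made GST–EGFR cytoplasmic region (aa 667 onward), biotin-polyGluTyr, 5 μM ATP with 33P tracer, pH 8.0 Tris/Mg/vanadate/DTT, 30 °C for 1 h; captured on streptavidin Flashplates and counted.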

HER-2 = biological target: T2, HER-2 (Homo sapiens, UniProt P04626); assay: HER-2 Kinase Assay; assay type: biochemical; details: value in parentheses
T2 construct: His6 with thrombin site (N); purchased Proqinase (Freiburg, Germany)
Procedure, shortened: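 Read-out was scintillation counting of 33P incorporated into biotinylated polyGluTyr captured on streptavidin plates. Reactions ran 1 h at 30 °C with GST-fused HER-2 residues 679–1255, 1 μM ATP, Mn2+ and Mg2+ at pH 7.5; data given as percent inhibition at 1 μM, with IC50 where determined.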

T1 sequence (P00533 669-1210 limits assumed): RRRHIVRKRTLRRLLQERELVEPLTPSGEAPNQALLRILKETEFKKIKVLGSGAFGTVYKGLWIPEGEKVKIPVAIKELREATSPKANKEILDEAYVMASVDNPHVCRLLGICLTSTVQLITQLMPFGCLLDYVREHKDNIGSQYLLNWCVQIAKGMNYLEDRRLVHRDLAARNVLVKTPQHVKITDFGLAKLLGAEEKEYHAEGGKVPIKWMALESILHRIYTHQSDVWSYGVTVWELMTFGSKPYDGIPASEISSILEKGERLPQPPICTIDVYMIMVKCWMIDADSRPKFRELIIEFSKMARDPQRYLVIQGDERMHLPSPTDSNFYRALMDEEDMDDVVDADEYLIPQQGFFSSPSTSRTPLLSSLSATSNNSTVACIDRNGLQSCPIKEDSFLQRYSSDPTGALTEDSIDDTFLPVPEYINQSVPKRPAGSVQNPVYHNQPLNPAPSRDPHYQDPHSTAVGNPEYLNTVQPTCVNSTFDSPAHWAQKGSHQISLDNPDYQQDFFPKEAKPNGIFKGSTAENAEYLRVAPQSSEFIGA
T2 sequence (P04626 679-1255): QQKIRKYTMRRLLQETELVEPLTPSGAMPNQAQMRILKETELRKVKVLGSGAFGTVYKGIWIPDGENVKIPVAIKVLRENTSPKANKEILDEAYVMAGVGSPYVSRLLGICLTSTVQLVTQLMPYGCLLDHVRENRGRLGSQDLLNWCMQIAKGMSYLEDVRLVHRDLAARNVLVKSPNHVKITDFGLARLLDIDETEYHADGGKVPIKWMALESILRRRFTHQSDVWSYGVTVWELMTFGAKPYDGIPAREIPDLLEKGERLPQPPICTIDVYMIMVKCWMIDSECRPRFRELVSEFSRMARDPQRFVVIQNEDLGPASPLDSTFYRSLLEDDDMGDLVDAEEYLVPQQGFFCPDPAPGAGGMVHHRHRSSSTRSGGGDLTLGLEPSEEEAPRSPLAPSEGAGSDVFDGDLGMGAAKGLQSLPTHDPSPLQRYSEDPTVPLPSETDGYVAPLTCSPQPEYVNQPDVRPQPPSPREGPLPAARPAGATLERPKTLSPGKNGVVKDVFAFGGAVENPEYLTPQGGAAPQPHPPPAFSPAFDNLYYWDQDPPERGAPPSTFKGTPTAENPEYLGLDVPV

Row | Structure (SMILES) | IC50 (EGFR) [nM] | IC50 (HER-2) [nM] | inhibition at 2 µM (EGFR) [%]
1 | COc1cc(NC(=O)c2sc3ncnc4c3c2NC(=O)N4c2ccc(Sc3ccccc3)cc2)ccc1CN1CCOCC1 [Cpd 219, 4-oxo-5-(4-phenylsulfanyl-phenyl)-4,5-dihydro-3H-1-thia-3,5,6,8-tetraaza-acenaphthylene-2-carboxylic acid (3-methoxy-4-morpholin-4-ylmethyl-phenyl)-amide] | 127 | 58 | –
2 | O=C(Nc1cccc(CN2CCOCC2)c1)c1sc2ncnc3c2c1NC(=O)N3c1ccc(Oc2ccccc2)cc1 [Cpd 220, 4-oxo-5-(4-phenoxy-phenyl)-4,5-dihydro-3H-1-thia-3,5,6,8-tetraaza-acenaphthylene-2-carboxylic acid (3-morpholin-4-ylmethyl-phenyl)-amide] | 141 | 355 | –
3 | CCOC(=O)c1sc2ncnc3c2c1NC(=O)N3c1ccc(OCc2ccco2)c(Cl)c1 [Cpd 222, 5-[3-chloro-4-(furan-2-ylmethoxy)-phenyl]-4-oxo-4,5-dihydro-3H-1-thia-3,5,6,8-tetraaza-acenaphthylene-2-carboxylic acid ethyl ester] | – | > 100000 | 4
4 | CCOC(=O)c1sc2ncnc3c2c1NC(=O)N3c1ccc(OCc2cccs2)c(Cl)c1 [Cpd 223, 5-[3-chloro-4-(thiophen-2-ylmethoxy)-phenyl]-4-oxo-4,5-dihydro-3H-1-thia-3,5,6,8-tetraaza-acenaphthylene-2-carboxylic acid ethyl ester] | – | > 100000 | 5
5 | COc1cc(NC(=O)c2sc3ncnc4c3c2NC(=O)N4c2ccc(Sc3ccccc3)cc2)ccc1CN1CCCCC1 [Cpd 224, 4-oxo-5-(4-phenylsulfanyl-phenyl)-4,5-dihydro-3H-1-thia-3,5,6,8-tetraaza-acenaphthylene-2-carboxylic acid (3-methoxy-4-piperidin-1-ylmethyl-phenyl)-amide] | 14 | 27 | –
6 | O=C(Nc1ccc(CN2CCOCC2)cc1)c1sc2ncnc3c2c1NC(=O)N3c1ccc(OCc2cccs2)c(Cl)c1 [Cpd 226, 5-[3-chloro-4-(thiophen-2-ylmethoxy)-phenyl]-4-oxo-4,5-dihydro-3H-1-thia-3,5,6,8-tetraaza-acenaphthylene-2-carboxylic acid (4-morpholin-4-ylmethyl-phenyl)-amide] | 33 | 27 | –
7 | O=C(Nc1ccc(CN2CCCCC2)cc1)c1sc2ncnc3c2c1NC(=O)N3c1ccc(OCc2cccs2)c(Cl)c1 [Cpd 227, 5-[3-chloro-4-(thiophen-2-ylmethoxy)-phenyl]-4-oxo-4,5-dihydro-3H-1-thia-3,5,6,8-tetraaza-acenaphthylene-2-carboxylic acid (4-piperidin-1-ylmethyl-phenyl)-amide] | 19 | 33 | –
8 | COc1cc(NC(=O)c2sc3ncnc4c3c2NC(=O)N4c2ccc(OCc3cccs3)c(Cl)c2)ccc1CN1CCCCC1 [Cpd 228, 5-[3-chloro-4-(thiophen-2-ylmethoxy)-phenyl]-4-oxo-4,5-dihydro-3H-1-thia-3,5,6,8-tetraaza-acenaphthylene-2-carboxylic acid (3-methoxy-4-piperidin-1-ylmethyl-phenyl)-amide] | 17 | 33 | –
9 | COc1cc(NC(=O)c2sc3ncnc4c3c2NC(=O)N4c2ccc(OCc3cccs3)c(Cl)c2)ccc1CN1CCOCC1 [Cpd 229, 5-[3-chloro-4-(thiophen-2-ylmethoxy)-phenyl]-4-oxo-4,5-dihydro-3H-1-thia-3,5,6,8-tetraaza-acenaphthylene-2-carboxylic acid (3-methoxy-4-morpholin-4-ylmethyl-phenyl)-amide] | 33 | 17 | –
10 | COc1cc(NC(=O)c2sc3ncnc4c3c2NC(=O)N4c2ccc(Oc3cccnc3)cc2)ccc1CN1CCOCC1 [Cpd 236, 4-oxo-5-[4-(pyridin-3-yloxy)-phenyl]-4,5-dihydro-3H-1-thia-3,5,6,8-tetraaza-acenaphthylene-2-carboxylic acid (3-methoxy-4-morpholin-4-ylmethyl-phenyl)-amide] | 108 | 454 | –
11 | O=C(Nc1ccc(CN2CCOCC2)cc1)c1sc2ncnc3c2c1NC(=O)N3c1ccc(Oc2cccnc2)cc1 [Cpd 237, 4-oxo-5-[4-(pyridin-3-yloxy)-phenyl]-4,5-dihydro-3H-1-thia-3,5,6,8-tetraaza-acenaphthylene-2-carboxylic acid (4-morpholin-4-ylmethyl-phenyl)-amide] | 90 | 454 | –
12 | CCOC(=O)c1sc2ncnc3c2c1NC(=O)N3c1ccc(NC(=O)c2ccccc2)cc1 [Cpd 241, 5-(4-benzoylamino-phenyl)-4-oxo-4,5-dihydro-3H-1-thia-3,5,6,8-tetraaza-acenaphthylene-2-carboxylic acid ethyl ester] | – | > 100000 | -2

The remaining compounds from weak to strong by IC50 (HER-2), led by results:

Row | IC50 (EGFR) [nM] | IC50 (HER-2) [nM] | inhibition at 2 µM (EGFR) [%] | Structure (SMILES)
13 | 314 | 1050 | – | O=C(Nc1ccc(CN2CCOCC2)c(C(F)(F)F)c1)c1sc2ncnc3c2c1NC(=O)N3c1ccc(Oc2ccccc2)cc1 [Cpd 231, 4-oxo-5-(4-phenoxy-phenyl)-4,5-dihydro-3H-1-thia-3,5,6,8-tetraaza-acenaphthylene-2-carboxylic acid (4-morpholin-4-ylmethyl-3-trifluoromethyl-phenyl)-amide]
14 | 132 | 1050 | – | O=C(Nc1ccc(CN2CCCCC2)cc1)c1sc2ncnc3c2c1NC(=O)N3c1ccc(Oc2cccnc2)cc1 [Cpd 238, 4-oxo-5-[4-(pyridin-3-yloxy)-phenyl]-4,5-dihydro-3H-1-thia-3,5,6,8-tetraaza-acenaphthylene-2-carboxylic acid (4-piperidin-1-ylmethyl-phenyl)-amide]
15 | 114 | 414 | – | O=C(Nc1ccc(CN2CCOCC2)c(OC(F)(F)F)c1)c1sc2ncnc3c2c1NC(=O)N3c1ccc(Oc2ccccc2)cc1 [Cpd 239, 4-oxo-5-(4-phenoxy-phenyl)-4,5-dihydro-3H-1-thia-3,5,6,8-tetraaza-acenaphthylene-2-carboxylic acid (4-morpholin-4-ylmethyl-3-trifluoromethoxy-phenyl)-amide]
16 | 109 | 367 | – | CN1CCC(NC(=O)c2sc3ncnc4c3c2NC(=O)N4c2ccc(OCc3cccs3)c(Cl)c2)CC1 [Cpd 230, 5-[3-chloro-4-(thiophen-2-ylmethoxy)-phenyl]-4-oxo-4,5-dihydro-3H-1-thia-3,5,6,8-tetraaza-acenaphthylene-2-carboxylic acid (1-methyl-piperidin-4-yl)-amide]
17 | 85 | 111 | – | O=C(Nc1ccc(CN2CCOCC2)c(Cl)c1)c1sc2ncnc3c2c1NC(=O)N3c1ccc(Oc2ccccc2)cc1 [Cpd 221, 4-oxo-5-(4-phenoxy-phenyl)-4,5-dihydro-3H-1-thia-3,5,6,8-tetraaza-acenaphthylene-2-carboxylic acid (3-chloro-4-morpholin-4-ylmethyl-phenyl)-amide]
18 | 14 | 73 | – | CN1CCN(Cc2ccc(NC(=O)c3sc4ncnc5c4c3NC(=O)N5c3ccc(Sc4ccccc4)cc3)cc2)CC1 [Cpd 218, 4-oxo-5-(4-phenylsulfanyl-phenyl)-4,5-dihydro-3H-1-thia-3,5,6,8-tetraaza-acenaphthylene-2-carboxylic acid [4-(4-methyl-piperazin-1-ylmethyl)-phenyl]-amide]
